Measured values as given in patent US7888386B2, “3-(phenoxyphenylmethyl)pyrrolidine compounds” (Theravance, Inc., priority 2008, dated 2011).
Read-outs that look alike come from different tables or passages of the source.

What was measured:
[1] = target: T1, hSERT (Homo sapiens, UniProt P31645); test: hSERT binding assay (Assay 1)
T1 construct: expressed in transfected cells; host or cells: HEK-293 derived cell line, stably transfected; membrane preparation
Protocol: (§1) Membrane radioligand binding assays were used to measure competitive inhibition of labeled ligand (^3H-citalopram or ^3H-nisoxetine or ^3H-WIN35428) binding to membranes prepared from cells expressing the respective human recombinant transporter (hSERT or hNET or hDAT) in order to determine the pKi values of test compounds at the transporters.
(§2) Recombinant human embryonic kidney (HEK-293) derived cell lines stably transfected with hSERT or hNET, respectively, were grown in DMEM medium supplemented with 10% dialyzed FBS (for hSERT) or FBS (for hNET), 100 μg/ml penicillin, 100 μg/ml streptomycin, 2 mM L-glutamine and 250 μg/ml of the aminoglycoside antibiotic G418, in a 5% CO2 humidified incubator at 37° C. When cultures reached 80% confluence, the cells were washed thoroughly in PBS (without Ca^2+ and Mg^2+) and lifted with 5 mM EDTA in PBS. Cells were pelleted by centrifugation, resuspended in lysis buffer (10 mM Tris-HCl, pH 7.5 containing 1 mM EDTA), homogenized, pelleted by centrifugation, then resuspended in 50 mM Tris-HCl, pH 7.5 and 10% sucrose at 4° C. Protein concentration of the membrane suspension was determined using a Bio-Rad Bradford Protein Assay kit. Membranes were snap frozen and stored at −80° C. Chinese hamster ovary membranes expressing hDAT (CHO-DAT) were purchased from PerkinElmer and stored at −80° C.
(§3) Stock solutions (10 mM in DMSO) of test compound were prepared and serial dilutions made using Dilution Buffer (50 mM Tris-HCl, 120 mM NaCl, 5 mM KCl, pH 7.4, 0.1% BSA, 400 μM ascorbic acid).
(§4) Following a 60 minute incubation at 22° C. (or a period sufficient to reach equilibrium), the membranes were harvested by rapid filtration over a 96-well UniFilter GF/B plate, pretreated with 0.3% polyethyleneimine, and washed 6 times with 300 μl wash buffer (50 mM Tris-HCl, 0.9% NaCl, pH 7.5 at 4° C.). Plates were dried overnight at room temperature, ˜45 μl of MicroScint™-20 (Perkin Elmer) added and bound radioactivity quantitated via liquid scintillation spectroscopy. Competitive inhibition curves and saturation isotherms were analyzed using GraphPad Prism Software package (GraphPad Software, Inc., San Diego, Calif.). IC50 values were generated from concentration response curves using the Sigmoidal Dose Response (variable slope) algorithm in Prism GraphPad.

[2] = target: T2, hNET (Homo sapiens, UniProt P23975); test: hNET binding assay (Assay 1)
T2 construct: expressed in transfected cells; host or cells: HEK-293 derived cell line, stably transfected; membrane preparation
T2 sequence (P23975 whole entry): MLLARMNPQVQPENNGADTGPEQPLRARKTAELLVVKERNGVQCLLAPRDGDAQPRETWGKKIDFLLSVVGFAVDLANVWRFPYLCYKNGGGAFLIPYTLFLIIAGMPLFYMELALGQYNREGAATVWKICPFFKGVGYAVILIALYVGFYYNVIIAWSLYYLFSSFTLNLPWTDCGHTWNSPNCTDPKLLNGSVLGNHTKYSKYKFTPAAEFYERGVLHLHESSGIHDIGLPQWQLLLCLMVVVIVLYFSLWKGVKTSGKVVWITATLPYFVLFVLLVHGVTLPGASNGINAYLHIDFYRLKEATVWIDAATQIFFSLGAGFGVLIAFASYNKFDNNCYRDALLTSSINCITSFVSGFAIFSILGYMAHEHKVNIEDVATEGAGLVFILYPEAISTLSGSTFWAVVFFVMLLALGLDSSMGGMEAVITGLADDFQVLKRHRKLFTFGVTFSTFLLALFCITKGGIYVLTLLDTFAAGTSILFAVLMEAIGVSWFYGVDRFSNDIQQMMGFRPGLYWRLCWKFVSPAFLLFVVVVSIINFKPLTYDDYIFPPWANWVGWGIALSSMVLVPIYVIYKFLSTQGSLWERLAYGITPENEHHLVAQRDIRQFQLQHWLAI
Protocol: as §1, §2, §3, §4

[3] = ratio of binding Ki at hSERT to Ki at hNET, rounded off to the nearest tenth
[4] = membranes of HEK-293 cells expressing hNET, 1.0 nM 3H-nisoxetine, read-out: NET pKi (converted)
[5] = ratio of SERT Ki to NET Ki (binding)
[6] = hNET binding, read-out: NET pKi (converted)
[7] = ratio of binding Ki at SERT to Ki at NET, the tables list only compounds with a ratio in the range 0.1-100
[8] = ratio of SERT Ki to NET Ki from binding assays
[9] = hNET binding assay, read-out: NET pKi (converted)

T1 sequence (P31645 whole entry): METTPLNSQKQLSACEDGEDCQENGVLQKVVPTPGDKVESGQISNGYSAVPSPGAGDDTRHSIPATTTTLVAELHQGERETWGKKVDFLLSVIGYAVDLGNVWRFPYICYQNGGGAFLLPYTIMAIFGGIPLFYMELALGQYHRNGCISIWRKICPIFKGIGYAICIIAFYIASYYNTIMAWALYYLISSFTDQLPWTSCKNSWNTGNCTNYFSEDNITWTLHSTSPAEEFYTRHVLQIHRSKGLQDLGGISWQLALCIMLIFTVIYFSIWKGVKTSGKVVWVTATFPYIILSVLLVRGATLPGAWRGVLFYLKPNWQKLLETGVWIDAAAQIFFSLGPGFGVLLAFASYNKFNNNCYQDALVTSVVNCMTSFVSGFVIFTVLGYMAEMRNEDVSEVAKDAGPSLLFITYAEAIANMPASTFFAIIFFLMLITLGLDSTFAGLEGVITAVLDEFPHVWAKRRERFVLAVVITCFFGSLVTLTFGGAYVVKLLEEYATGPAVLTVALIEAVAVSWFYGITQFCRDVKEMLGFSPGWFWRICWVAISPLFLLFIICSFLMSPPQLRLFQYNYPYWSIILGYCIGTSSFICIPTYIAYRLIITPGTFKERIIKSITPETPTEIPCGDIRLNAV

Row | SMILES | SERT Ki/NET Ki [1, 5] | Ki [2, 6] [nM] | SERT Ki/NET Ki [1, 8] | Ki [2, 9] [nM] | further results
1 | CCC(=O)c1ccccc1OC(c1ccccc1)C1CCNC1 (stereo not drawn) [Compound 19-26] | – | – | – | – | SERT Ki/NET Ki [1, 3]: 50; Ki [2, 4]: 3.98 nM
2 | Clc1cc(Cl)c(Cl)c(O[C@H](c2ccccc2Cl)[C@@H]2CCNC2)c1 (racemic) [39-4] | 0.1 | 3.98 | – | – | –
3 | COc1cccc(C(Oc2ccccc2C(C)C)C2CCNC2)c1 (stereo not drawn) [Compound 20-10] | – | – | – | – | SERT Ki/NET Ki [1, 3]: 2.5; Ki [2, 4]: 5.01 nM
4 | Fc1ccc(C(Oc2cc(Cl)cc(Cl)c2)C2CCNC2)cc1 (stereo not drawn) [35-9] | 0.1 | 7.94 | – | – | –
5 | Clc1cc(Cl)c(Cl)c(OC(c2ccccc2)C2CCNC2)c1Cl (stereo not drawn) [Ex. 10-2, 3-[phenyl-(2,3,5,6-tetrachlorophenoxy)methyl]pyrrolidine] | – | – | – | – | SERT Ki/NET Ki [1, 7]: 0.1; Ki ([2]; NET pKi, hNET binding, the tables list only compounds with NET pKi≧8): 1.26 nM
6 | Cc1ccc(C(Oc2cc(Cl)cc(Cl)c2)C2CCNC2)cc1 (stereo not drawn) [35-12] | 0.1 | 7.94 | – | – | –
7 | Fc1cc(F)c(Cl)c(O[C@@H](c2ccccc2)[C@H]2CCNC2)c1 [Ex. 8-1, (S)-3-[(R)-(2-Chloro-3,5-difluorophenoxy)phenylmethyl]pyrrolidine] | 2.5 | 2 | – | – | –
8 | Fc1ccc(F)c(OC(c2ccccc2)C2CCNC2)c1 (racemic) [29-1] | – | – | 4 | 2 | –
9 | COc1ccc(F)c(F)c1O[C@H](c1ccccc1)[C@@H]1CCNC1 [40-8] | 1 | 1 | – | – | –
10 | Cc1cccc([C@@H](Oc2ccccc2Cl)[C@@H]2CCNC2)c1 (racemic) [Compound 20-6] | – | – | – | – | SERT Ki/NET Ki [1, 3]: 1.6; Ki [2, 4]: 3.98 nM
11 | Fc1cccc(Cl)c1O[C@H](c1ccccc1)[C@@H]1CCNC1 [31-5] | – | – | 1.3 | 0.631 | –
12 | Fc1ccc(Cl)c(F)c1OC(c1ccccc1)C1CCNC1 (stereo not drawn) [40-15] | 1.3 | 0.251 | – | – | –
13 | Cc1ccc(OC(c2ccccc2)C2CCNC2)c(Cl)c1 (stereo not drawn) [27-10] | – | – | 0.8 | 0.631 | –
14 | Cc1ccc(Cl)c(OC(c2cc(F)cc(Cl)c2)C2CCNC2)c1Cl (stereo not drawn) [41-24] | 1 | 1 | – | – | –
15 | COc1ccc(F)cc1OC(c1cc(F)cc(F)c1)C1CCNC1 (stereo not drawn) [30-6] | – | – | 0.4 | 5.01 | –
16 | N#Cc1cccc([C@H](Oc2ccc(Cl)cc2F)[C@H]2CCNC2)c1 [28-3] | – | – | 0.5 | 6.31 | –
17 | Fc1ccc(Cl)cc1O[C@H](c1ccccc1)[C@@H]1CCNC1 [29-6] | – | – | 0.3 | 3.98 | –
18 | Fc1cc(F)c(Cl)c(OC(c2ccccc2)C2CCNC2)c1F (stereo not drawn) [47-7] | – | – | – | – | SERT Ki/NET Ki [1, 7]: 0.4; Ki ([2]; hNET binding, the tables list only compounds with NET pKi≧8, read-out: NET pKi (converted)): 0.501 nM
19 | Fc1ccc(Cl)c(Cl)c1OC(c1ccccc1)C1CCNC1 (stereo not drawn) [40-13] | 0.3 | 0.2 | – | – | –
20 | COc1cc(Cl)c(F)cc1OC(c1cc(F)cc(F)c1)C1CCNC1 (stereo not drawn) [43-2] | 1.3 | 2 | – | – | –
21 | Fc1cc(F)cc(C(Oc2cc(Cl)ccc2Cl)C2CCNC2)c1 (stereo not drawn) [30-3] | – | – | 0.3 | 3.98 | –
22 | COc1cccc(C(Oc2ccccc2Cl)C2CCNC2)c1 (stereo not drawn) [Compound 20-7] | – | – | – | – | SERT Ki/NET Ki [1, 3]: 1.3; Ki [2, 4]: 3.16 nM
23 | Cc1c(Cl)cccc1OC(c1ccccc1)C1CCNC1 (stereo not drawn) [Compound 25-21] | – | – | – | – | SERT Ki/NET Ki [1, 3]: 0.6; Ki [2, 4]: 1.26 nM
24 | Cc1cccc(O[C@@H](c2ccccc2)[C@H]2CCNC2)c1C [Compound 25-24] | – | – | – | – | SERT Ki/NET Ki [1, 3]: 0.3; Ki [2, 4]: 2.51 nM
25 | Cc1c(F)cccc1OC(c1ccccc1)C1CCNC1 (racemic) [Compound 25-17] | – | – | – | – | SERT Ki/NET Ki [1, 3]: 0.2; Ki [2, 4]: 2.51 nM
26 | Cc1ccc(Cl)c(OC(c2cc(F)cc(F)c2)C2CCNC2)c1Cl (racemic) [41-26] | 1.3 | 0.501 | – | – | –
27 | COc1ccc(F)cc1O[C@@H](c1ccccc1)[C@H]1CCNC1 [29-24] | – | – | 34 | 1 | –
28 | Cc1c(F)ccc(OC(c2ccccc2)C2CCNC2)c1F (stereo not drawn) [36-7] | 0.3 | 5.01 | – | – | –
29 | Cc1ccc(Cl)c(O[C@@H](c2cc(F)cc(F)c2)[C@H]2CCNC2)c1Cl [41-27] | 0.8 | 0.794 | – | – | –
30 | Cc1ccc(F)cc1OC(c1ccccc1)C1CCNC1 (stereo not drawn) [29-16] | – | – | 7.9 | 1.58 | –
